This note sets out measurements from patent publication US8765940B2 (priority 2009, dated 2014).

The target of this assay is PI3Kδ (Homo sapiens (Human), UniProt O00329). In kind it is biochemical. Conditions: PI3Kδ Alphascreen assay.
Sequence of PI3Kδ (O00329 whole entry): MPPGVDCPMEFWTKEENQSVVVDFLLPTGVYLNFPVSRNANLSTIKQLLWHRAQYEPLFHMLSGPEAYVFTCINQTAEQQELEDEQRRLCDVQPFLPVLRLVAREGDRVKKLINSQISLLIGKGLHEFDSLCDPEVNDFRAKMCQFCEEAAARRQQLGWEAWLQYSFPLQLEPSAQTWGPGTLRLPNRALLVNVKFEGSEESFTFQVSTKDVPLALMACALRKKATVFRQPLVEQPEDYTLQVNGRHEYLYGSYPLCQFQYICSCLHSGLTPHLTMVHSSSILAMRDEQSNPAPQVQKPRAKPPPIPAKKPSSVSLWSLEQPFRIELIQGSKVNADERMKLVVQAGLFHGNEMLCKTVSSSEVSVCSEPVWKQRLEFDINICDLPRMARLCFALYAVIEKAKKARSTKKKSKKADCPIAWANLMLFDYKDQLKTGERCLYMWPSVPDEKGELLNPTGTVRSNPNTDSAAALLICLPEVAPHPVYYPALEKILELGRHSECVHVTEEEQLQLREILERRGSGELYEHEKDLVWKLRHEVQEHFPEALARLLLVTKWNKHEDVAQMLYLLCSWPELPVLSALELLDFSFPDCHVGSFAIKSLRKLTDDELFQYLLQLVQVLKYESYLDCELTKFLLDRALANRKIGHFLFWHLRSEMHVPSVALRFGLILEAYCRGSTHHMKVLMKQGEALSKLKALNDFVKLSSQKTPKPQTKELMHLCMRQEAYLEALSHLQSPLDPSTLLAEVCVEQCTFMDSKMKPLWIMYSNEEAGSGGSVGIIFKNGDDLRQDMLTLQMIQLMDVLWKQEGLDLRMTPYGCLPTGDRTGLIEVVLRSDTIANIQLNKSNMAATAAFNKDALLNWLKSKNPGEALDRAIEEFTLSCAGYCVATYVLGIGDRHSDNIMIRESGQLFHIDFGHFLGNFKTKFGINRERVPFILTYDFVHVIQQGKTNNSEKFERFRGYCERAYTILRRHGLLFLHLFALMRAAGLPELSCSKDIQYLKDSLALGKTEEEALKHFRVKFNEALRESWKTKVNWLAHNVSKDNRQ
Sequence of PI3Kδ (P27986 whole entry partner): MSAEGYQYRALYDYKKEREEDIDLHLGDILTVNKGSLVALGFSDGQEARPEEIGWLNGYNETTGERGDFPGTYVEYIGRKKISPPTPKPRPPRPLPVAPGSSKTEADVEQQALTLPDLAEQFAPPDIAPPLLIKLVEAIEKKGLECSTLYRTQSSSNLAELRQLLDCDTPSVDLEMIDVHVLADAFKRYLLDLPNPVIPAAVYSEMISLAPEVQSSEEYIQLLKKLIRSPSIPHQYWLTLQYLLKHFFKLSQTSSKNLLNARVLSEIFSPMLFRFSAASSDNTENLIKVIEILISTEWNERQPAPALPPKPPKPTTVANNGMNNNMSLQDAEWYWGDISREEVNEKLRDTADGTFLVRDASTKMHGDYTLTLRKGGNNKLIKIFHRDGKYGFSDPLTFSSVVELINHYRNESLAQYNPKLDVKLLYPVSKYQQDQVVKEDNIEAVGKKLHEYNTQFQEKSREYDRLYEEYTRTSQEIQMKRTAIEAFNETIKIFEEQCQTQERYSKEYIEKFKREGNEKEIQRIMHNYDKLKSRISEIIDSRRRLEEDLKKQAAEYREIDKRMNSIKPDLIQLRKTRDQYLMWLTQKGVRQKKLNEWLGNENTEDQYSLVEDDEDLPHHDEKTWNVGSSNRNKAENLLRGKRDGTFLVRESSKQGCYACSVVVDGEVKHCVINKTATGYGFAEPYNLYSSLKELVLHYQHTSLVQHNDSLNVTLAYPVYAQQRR
Protocol: A PI3K Alphascreen® assay (PerkinElmer, Waltham, Mass.) was used to measure the activity of a panel of four phosphoinositide 3-kinases: PI3Kα, PI3Kβ, PI3Kγ, and PI3Kδ. Enzyme reaction buffer was prepared using sterile water (Baxter, Deerfield, Ill.) and 50 mM Tris HCl pH 7, 14 mM MgCl2, 2 mM sodium cholate, and 100 mM NaCl. 2 mM DTT was added fresh the day of the experiment. The Alphascreen buffer was made using sterile water and 10 mM Tris HCl pH 7.5, 150 mM NaCl, 0.10% Tween 20, and 30 mM EDTA. 1 mM DTT was added fresh the day of the experiment. Compound source plates used for this assay were 384-well Greiner clear polypropylene plates containing test compounds at 5 mM and diluted 1:2 over 22 concentrations. Columns 23 and 24 contained only DMSO as these wells comprised the positive and negative controls, respectively. Source plates were replicated by transferring 0.5 uL per well into 384-well Optiplates (PerkinElmer, Waltham, Mass.).
Each PI3K isoform was diluted in enzyme reaction buffer to 2× working stocks. PI3Kα was diluted to 1.6 nM, PI3Kβ was diluted to 0.8 nM, PI3Kγ was diluted to 15 nM, and PI3Kδ was diluted to 1.6 nM. PI(4,5)P2 (Echelon Biosciences, Salt Lake City, Utah) was diluted to 10 μM and ATP was diluted to 20 μM. This 2× stock was used in the assays for PI3Kα and PI3Kβ. For assay of PI3Kγ and PI3Kδ, PI(4,5)P2 was diluted to 10 μM and ATP was diluted to 8 μM to prepare a similar 2× working stock. Alphascreen reaction solutions were made using beads from the anti-GST Alphascreen kit (PerkinElmer, Waltham, Mass.). Two 4× working stocks of the Alphascreen reagents were made in Alphascreen reaction buffer. In one stock, biotinylated-IP4 (Echelon Biosciences, Salt Lake City, Utah) was diluted to 40 nM and streptavadin-donor beads were diluted to 80 μg/mL. In the second stock, PIP3-binding protein (Echelon Biosciences, Salt Lake City, Utah) was diluted to 40 nM and anti-GST-acceptor beads were diluted to 80 μg/mL.
Using a 384-well Multidrop (Titertek, Huntsville, Ala.), 10 μL/well of 2× enzyme stock was added to columns 1-24 of the assay plates for each isoform. 10 μL/well of the appropriate substrate 2× stock (containing 20 μM ATP for the PI3Kα and β assays and containing 8 μM ATP for the PI3Kγ and δ assays) was then added to Columns 1-24 of all plates. Plates were then incubated at room temperature for 20 minutes. In the dark, 10 μL/well of the donor bead solution was added to columns 1-24 of the plates to quench the enzyme reaction. The plates were incubated at room temperature for 30 minutes. Still in the dark, 10 μL/well of the acceptor bead solution was added to columns 1-24 of the plates. The plates were then incubated in the dark for 1.5 hours. The plates were read on an Envision multimode Plate Reader (PerkinElmer, Waltham, Mass.) using a 680 nm excitation filter and a 520-620 nm emission filter.
`Cc1cc(C)cc(-c2nc3cc(F)ccc3c(N3CC4(CCOCC4)c4ncc(N5CCOCC5)cc43)c2C)c1` [1′-(2-(3,5-dimethylphenyl)-7-fluoro-3-methyl-4-quinolinyl)-6′-(4-morpholinyl)-1′,2,2′,3,5,6-hexahydrospiro[pyran-4,3′-pyrrolo[3,2-b]pyridine]]: the Ki – broadly, the dissociation constant of the complex between target and ligand, obtained from inhibition or displacement – worked out at 12.1 nM. In turn, `Cc1c(-c2cccc(F)c2)nc2ncccc2c1N1CC2(CCOCC2)c2ncc(N3CCOCC3)cc21` [1′-(2-(3-fluorophenyl)-3-methyl-1,8-naphthyridin-4-yl)-6′-(4-morpholinyl)-1′,2,2′,3,5,6-hexahydrospiro[pyran-4,3′-pyrrolo[3,2-b]pyridine]] returned a Ki of 27.8 nM. For `Cc1c(-c2ccccn2)nc2cnccc2c1N1CC2(CCOCC2)c2ncc(N3CCOCC3)cc21` [1′-(3-methyl-2-(2-pyridinyl)-1,7-naphthyridin-4-yl)-6′-(4-morpholinyl)-1′,2,2′,3,5,6-hexahydrospiro[pyran-4,3′-pyrrolo[3,2-b]pyridine]] the value was 30.7 nM; for `Cc1c(-c2ccccn2)nc2ncccc2c1N1CC2(CCOCC2)c2ncc(N3CCOCC3)cc21` [1′-(3-methyl-2-(2-pyridinyl)-1,8-naphthyridin-4-yl)-6′-(4-morpholinyl)-1′,2,2′,3,5,6-hexahydrospiro[pyran-4,3′-pyrrolo[3,2-b]pyridine]], 65.9 nM. `Cc1c(-c2ccccc2)nc2ncccc2c1N1CC2(CCOCC2)c2ncc(N3CCOCC3)cc21` [1′-(3-methyl-2-phenyl-1,8-naphthyridin-4-yl)-6′-(4-morpholinyl)-1′,2,2′,3,5,6-hexahydrospiro[pyran-4,3′-pyrrolo[3,2-b]pyridine]]: the Ki worked out at 22.6 nM. With `COc1cc(-c2nc3cc(F)cc(F)c3c(N3CC4(CCOCC4)c4ncc(N5CCOCC5)cc43)c2C)ccn1` [1′-(5,7-difluoro-2-(2-methoxy-4-pyridinyl)-3-methyl-4-quinolinyl)-6′-(4-morpholinyl)-1′,2,2′,3,5,6-hexahydrospiro[pyran-4,3′-pyrrolo[3,2-b]pyridine]] the figure was 6.89 nM; with `Cc1c(N2CCNCC2)nc2cc(F)cc(F)c2c1N1CC2(CCOCC2)c2ncc(N3CCOCC3)cc21` [1′-(5,7-difluoro-3-methyl-2-(1-piperazinyl)-4-quinolinyl)-6′-(4-morpholinyl)-1′,2,2′,3,5,6-hexahydrospiro[pyran-4,3′-pyrrolo[3,2-b]pyridine]], 1.37 nM; with `Cc1c(-c2ccccc2S(C)(=O)=O)nc2cc(F)cc(F)c2c1N1CC2(CCOCC2)c2ncc(N3CCOCC3)cc21` [1′-(5,7-difluoro-3-methyl-2-(2-(methylsulfonyl)phenyl)-4-quinolinyl)-6′-(4-morpholinyl)-1′,2,2′,3,5,6-hexahydrospiro[pyran-4,3′-pyrrolo[3,2-b]pyridine]], 4.51 nM.

For `Cc1c(-c2ccccn2)nc2cc(F)cc(F)c2c1N1CC2(CCOCC2)c2ncc(N3CCOCC3)cc21` [1′-(5,7-difluoro-3-methyl-2-(2-pyridinyl)-4-quinolinyl)-6′-(4-morpholinyl)-1′,2,2′,3,5,6-hexahydrospiro[pyran-4,3′-pyrrolo[3,2-b]pyridine]], the inhibition constant (Ki) turned out to be 9.44 nM.

Regarding `Cc1c(N2CCN(S(C)(=O)=O)CC2)nc2cc(F)cc(F)c2c1N1CC2(CCOCC2)c2ncc(N3CCOCC3)cc21` [1′-(5,7-difluoro-3-methyl-2-(4-(methylsulfonyl)-1-piperazinyl)-4-quinolinyl)-6′-(4-morpholinyl)-1′,2,2′,3,5,6-hexahydrospiro[pyran-4,3′-pyrrolo[3,2-b]pyridine]], the affinity corresponds to a Ki of 2.3 nM. `Cc1ccc(S(C)(=O)=O)c(-c2nc3cc(F)cc(F)c3c(N3CC4(CCOCC4)c4ncc(N5CCOCC5)cc43)c2C)c1` [1′-(5,7-difluoro-3-methyl-2-(5-methyl-2-(methylsulfonyl)phenyl)-4-quinolinyl)-6′-(4-morpholinyl)-1′,2,2′,3,5,6-hexahydrospiro[pyran-4,3′-pyrrolo[3,2-b]pyridine]] yielded a Ki of 1.51 nM. As to `Cc1c(-c2ccccn2)nc2cccc(F)c2c1N1CC2(CCOCC2)c2ncc(N3CCOCC3)cc21` [1′-(5-fluoro-3-methyl-2-(2-pyridinyl)-4-quinolinyl)-6′-(4-morpholinyl)-1′,2,2′,3,5,6-hexahydrospiro[pyran-4,3′-pyrrolo[3,2-b]pyridine]], the affinity, expressed as Ki, was 6.48 nM. In turn, `Cc1c(-c2ccccn2)nc2cc(F)ccc2c1N1CC2(CCOCC2)c2ncc(-c3cn[nH]c3)cc21` [1′-(7-fluoro-3-methyl-2-(2-pyridinyl)-4-quinolinyl)-6′-(1H-pyrazol-4-yl)-1′,2,2′,3,5,6-hexahydrospiro[pyran-4,3′-pyrrolo[3,2-b]pyridine]] yielded a Ki of 320 nM. With `Cc1c(-c2ccccn2)nc2cc(F)ccc2c1N1CC2(CCOCC2)c2nc(N)c(N3CCOCC3)cc21` [1′-(7-fluoro-3-methyl-2-(2-pyridinyl)-4-quinolinyl)-6′-(4-morpholinyl)-1′,2,2′,3,5,6-hexahydrospiro[pyran-4,3′-pyrrolo[3,2-b]pyridin]-5′-amine] the figure was 29 nM; with `Cc1c(-c2ccccn2)nc2cc(F)ccc2c1N1CC2(CCOCC2)c2nc(C#N)c(N3CCOCC3)cc21` [1′-(7-fluoro-3-methyl-2-(2-pyridinyl)-4-quinolinyl)-6′-(4-morpholinyl)-1′,2,2′,3,5,6-hexahydrospiro[pyran-4,3′-pyrrolo[3,2-b]pyridine]-5′-carbonitrile], 219 nM; with `Cc1nc2c(Cl)cccc2c(N2CC3(CCOCC3)c3ncc(N4CCOCC4)cc32)c1C` [1′-(8-chloro-2,3-dimethyl-4-quinolinyl)-6′-(4-morpholinyl)-1′,2,2′,3,5,6-hexahydrospiro[pyran-4,3′-pyrrolo[3,2-b]pyridine]], 2.68 nM. Consider `Cc1c(N2CCOC(C)(C)C2)nc2cc(F)cc(F)c2c1N1CC(C)(C)c2ncc(N3CCOCC3)cc21` [2-(2,2-dimethyl-4-morpholinyl)-4-(3,3-dimethyl-6-(4-morpholinyl)-2,3-dihydro-1H-pyrrolo[3,2-b]pyridin-1-yl)-5,7-difluoro-3-methylquinoline], for which affinity was put at a Ki of 1.52 nM.

Consider `Cc1c(-c2cc(F)ccc2F)nc2cc(F)ccc2c1N1CC(C)(C)c2ccc(N3CCOCC3)cc21` [2-(2,5-difluorophenyl)-4-(3,3-dimethyl-6-(4-morpholinyl)-2,3-dihydro-1H-indol-1-yl)-7-fluoro-3-methylquinoline], for which affinity was put at a Ki of 20.3 nM. The molecule `Cc1c(-c2cc(C(F)(F)F)cc(C(F)(F)F)c2)nc2cccc(F)c2c1N1CC(C)(C)c2ccc(N3CCOCC3)cc21` [2-(3,5-bis(trifluoromethyl)phenyl)-4-(3,3-dimethyl-6-(4-morpholinyl)-2,3-dihydro-1H-indol-1-yl)-5-fluoro-3-methylquinoline] had a Ki of 3780 nM.

On to `Cc1c(-c2cc(C(F)(F)F)cc(C(F)(F)F)c2)nc2cc(F)ccc2c1N1CC(C)(C)c2ccc(N3CCOCC3)cc21` [2-(3,5-bis(trifluoromethyl)phenyl)-4-(3,3-dimethyl-6-(4-morpholinyl)-2,3-dihydro-1H-indol-1-yl)-7-fluoro-3-methylquinoline], for which the Ki came out at 3080 nM.

The molecule `Cc1c(-c2cc(F)cc(F)c2)nc2cnccc2c1N1CC(C)(C)c2ncc(N3CCOCC3)cc21` [2-(3,5-difluorophenyl)-4-(3,3-dimethyl-6-(4-morpholinyl)-2,3-dihydro-1H-pyrrolo[3,2-b]pyridin-1-yl)-3-methyl-1,7-naphthyridine] displayed a Ki of 2.36 nM. `Cc1c(-c2cc(F)cc(F)c2)nc2ncccc2c1N1CC(C)(C)c2ncc(N3CCOCC3)cc21` [2-(3,5-difluorophenyl)-4-(3,3-dimethyl-6-(4-morpholinyl)-2,3-dihydro-1H-pyrrolo[3,2-b]pyridin-1-yl)-3-methyl-1,8-naphthyridine] had a Ki of 3.11 nM. `Cc1c(C2CC2)nc2ncccc2c1N1CC(C)(C)c2ncc(N3CCOCC3)cc21` [2-cyclopropyl-4-(3,3-dimethyl-6-(4-morpholinyl)-2,3-dihydro-1H-pyrrolo[3,2-b]pyridin-1-yl)-3-methyl-1,8-naphthyridine]: the Ki was 32 nM. `Cc1c(-c2cccc(C#N)c2)nc2cc(F)ccc2c1N1CC(C)(C)c2ccc(N3CCOCC3)cc21` [3-(4-(3,3-dimethyl-6-(4-morpholinyl)-2,3-dihydro-1H-indol-1-yl)-7-fluoro-3-methyl-2-quinolinyl)benzonitrile] had a Ki of 154 nM.

Molecule `Cc1c(Cc2cccc(C#N)c2)nc2cc(F)cc(F)c2c1N1CC(C)(C)c2ncc(N3CCOCC3)cc21` [3-((4-(3,3-dimethyl-6-(4-morpholinyl)-2,3-dihydro-1H-pyrrolo[3,2-b]pyridin-1-yl)-5,7-difluoro-3-methyl-2-quinolinyl)methyl)benzonitrile] had a Ki of 2.68 nM. `Cc1cc(-c2ccc3c(c2)N(c2c(C)c(-c4ccccn4)nc4cc(F)ccc24)CC3(C)C)nc(N)n1` [4-(1-(7-fluoro-3-methyl-2-(2-pyridinyl)-4-quinolinyl)-3,3-dimethyl-2,3-dihydro-1H-indol-6-yl)-6-methyl-2-pyrimidinamine] returned a Ki of 449 nM. `Cc1c(-c2ccccn2)nc2cc(F)ccc2c1N1CC(C)(C)c2ncc(-c3cn[nH]c3)cc21` [4-(3,3-dimethyl-6-(1H-pyrazol-4-yl)-2,3-dihydro-1H-pyrrolo[3,2-b]pyridin-1-yl)-7-fluoro-3-methyl-2-(2-pyridinyl)quinoline]: the affinity, expressed as Ki, was 95.2 nM. For `Cc1nc2c(C)cccc2c(N2CC(C)(C)c3ccc(N4CCOCC4)cc32)c1C` [4-(3,3-dimethyl-6-(4-morpholinyl)-2,3-dihydro-1H-indol-1-yl)-2,3,8-trimethylquinoline], the Ki was 44 nM. `Cc1nc2c(C(F)(F)F)cccc2c(N2CC(C)(C)c3ccc(N4CCOCC4)cc32)c1C` [4-(3,3-dimethyl-6-(4-morpholinyl)-2,3-dihydro-1H-indol-1-yl)-2,3-dimethyl-8-(trifluoromethyl)quinoline] had a Ki of 516 nM. With `Cc1nc2ccccc2c(N2CC(C)(C)c3ccc(N4CCOCC4)cc32)c1C` [4-(3,3-dimethyl-6-(4-morpholinyl)-2,3-dihydro-1H-indol-1-yl)-2,3-dimethylquinoline] the figure was 362 nM; with `Cc1c(-c2ccccc2F)nc2ccccc2c1N1CC(C)(C)c2ccc(N3CCOCC3)cc21` [4-(3,3-dimethyl-6-(4-morpholinyl)-2,3-dihydro-1H-indol-1-yl)-2-(2-fluorophenyl)-3-methylquinoline], 47 nM.
